Test results: patent publication US5616684A, “Cyclic peptides and use thereof” (priority 1991, dated 1997)
Non-standard residues stand in square brackets, D forms with d. Residues, ends and D or L forms follow the SMILES beside them. *: point of attachment. NMeW = CN[C@@H](Cc1c[nH]c2ccccc12)C(=O)O; NMeF = CN[C@@H](Cc1ccccc1)C(=O)O; dTle = CC(C)(C)[C@@H](N)C(=O)O; NMeL = CN[C@@H](CC(C)C)C(=O)O; X3 = O=C(Cc1c[nH]c2ccccc12)*; Orn = NCCC[C@H](N)C(=O)O; PhAc = O=C(Cc1ccccc1)*; Sar = CNCC(=O)O

Key:
[1] = biological target: T1, endothelin receptor A (ETA) (Sus scrofa, UniProt Q29010); assay: Assay of Affinity for Receptor (1): Binding Activity on ETA Receptor; design: key to Binding Activity on ET Receptor (R. act.) ETA: relative binding activity; reference cyclic pentapeptide = 1.0; conditions: specific activity, binding activity of cyclo[-D-Glu-Ala-D-aIle-Leu-D-Trp-] taken as 1.0; porcine heart membrane fraction, 125I-labeled endothelin-1, 25° C., 1 hour
T1 construct: A membrane fraction prepared from the porcine heart; from tissue; host or cells: porcine heart membrane fraction
T1 sequence (Q29010 21-427): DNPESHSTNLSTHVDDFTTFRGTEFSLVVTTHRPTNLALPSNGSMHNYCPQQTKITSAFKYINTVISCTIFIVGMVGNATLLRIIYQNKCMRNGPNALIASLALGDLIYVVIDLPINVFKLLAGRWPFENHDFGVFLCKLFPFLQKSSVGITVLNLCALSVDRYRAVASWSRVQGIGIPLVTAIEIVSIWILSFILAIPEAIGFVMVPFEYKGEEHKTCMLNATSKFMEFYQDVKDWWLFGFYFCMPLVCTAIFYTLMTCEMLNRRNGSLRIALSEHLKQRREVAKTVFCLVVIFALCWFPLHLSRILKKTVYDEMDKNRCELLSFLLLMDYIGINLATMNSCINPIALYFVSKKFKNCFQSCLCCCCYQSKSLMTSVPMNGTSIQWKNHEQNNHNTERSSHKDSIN
Method: Assay of Affinity for Receptor (1) . . . Binding Activity on ETA Receptor
A membrane fraction prepared from the porcine heart was diluted to 0.15 mg/ml by using a buffer solution for assay, and 100 μl of the resulting suspension of the membrane fraction was poured into each assay tube to use for assay. To this suspension of the membrane fraction was added 2 μl of 5 nM ^125 I-labeled endothelin-1 solution. Further, 3 μl of a test peptide solution was added thereto, followed by incubation at a temperature of 25° C. for 1 hour. Then, the resulting suspension was diluted with 900 μl of the buffer solution for assay cooled with ice, and thereafter separated into a supernatant and a precipitate by centrifugation at 12,000×g for 10 minutes. Cell membranes and an endothelin receptor A (ETA) embedded therein were contained in the precipitate, and radioactive iodine-labeled endothelin combined with the receptor was also recovered in the precipitate. Accordingly, the amount of radioactive iodine-labeled endothelin combined with the endothelin receptor A (ETA) was determined by measuring the amount of radioactive iodine contained in the precipitate with a gamma-ray counter. The cyclic pentapeptide described in Japanese Patent Application No. 2-413828/1990, cyclo[-D-Glu-Ala-D-aIle-Leu-D-Trp-], was used as a control compound. The numerical value of ETA shown in Table 1 is the value of specific activity, taking the binding activity of this cyclic pentapeptide on the receptor A as 1.0. The binding activity (IC50) of this cyclic pentapeptide on the ETA receptor is 2×10^-6 M.

[2] = system: ETB receptor (guinea pig kidney crude receptor membrane fraction); assay: ETB Radio Receptor Assay *2; assay type: binding; conditions: relative activity (Example 8 given as 100), 125I-endothelin-1, 37° C., 90 minutes
Method: ETB Radio Receptor Assay *2
In the endothelin radio receptor assay, guinea pigs' kidneys were used. Guinea pigs (Std Hartrey, male 250 g, Japan SLC Ltd.) were made to have a cerebral concussion and sacrificed by bleeding from carotid arteries to pick up the kidneys and removed fat therefrom to prepare the kidneys. The obtained kidneys were sliced and homogenized by politron homogenizer in 20 ml of 50 mM Tris-HCl buffer [pH 7.4; 20 mM NaHCO3, 0.1 mM PMSF (Phenylmethylsulfonyl Fluoride), 1 mM EDTA (Ethylenediaminetetraacetic acid)] per one kidney. The homogenized kidney was applied to a centrifugation at 1,000×g for 15 minutes and the supernatant was further applied to a centrifugation for 20 minutes at 30,000×g. The resulting precipitate was twice washed with 50 mM Tris-HCl buffer (pH 7.4) containing 0.1 mM PMSF, 1 mM EDTA. The resultant was stored at -80 ° C. as a crude receptor membrane fraction and was used as the suspension in the following buffer when necessary.
740 Bq of ^125 I-endothelin-1 (81.4 TBq/mmol, Du Pont, USA) as a radio ligand, the crude membrane fraction (2.1 μg protein) and samples were added to the following buffer. The reaction was performed at 37° C., for 90 minutes in 0.2 ml of the buffer [50 mM Tris-HCl buffer (pH 7.4) containing 0.1 mM PMSF, 1 mM EDTA, 0.2% bovine serum albumin].
The reaction was stopped by fast filtration on a glass filter (GF/B, Wattman, USA) by Cell Harvestor (290 PHD, Cambridge-Technology, Great Britain), and the filter was three times washed with 50 mM Tris-HCl buffer (pH 7.4). Radio activity remained on the filter was assayed by a gamma counter.

Molecule	Binding Activity on ET Receptor (R. act.) ETA [1]	Binding Activity on ET Receptor (R. act.) ET8 *2 [2]
CC(C)C[C@@H]1NC(=O)[C@@H](CC(C)C)NC(=O)[C@H](CC(=O)O)NC(=O)[C@H](CC(C)C)NC(=O)[C@@H](CC(=O)O)NC(=O)[C@@H](Cc2c[nH]c3ccccc23)NC1=O [Example 18, Cyclo[--D--Asp--Leu--Asp--D--Leu--Leu--D--Trp--]] (cyclo(D[dL]L[dW][dD]L))	13	2.2
CC(C)C[C@@H]1NC(=O)[C@@H](CC(C)C)NC(=O)[C@H](CC(=O)O)NC(=O)[C@H](C(C)C)NC(=O)[C@@H](CC(=O)O)NC(=O)[C@@H](Cc2c[nH]c3ccccc23)NC1=O [Example 17, Cyclo[--D--Asp--Val--Asp--D--Leu--Leu--D--Trp--]] (cyclo(D[dL]L[dW][dD]V))	3.7	22
CC(C)C[C@@H]1NC(=O)[C@@H](CC(C)C)NC(=O)[C@H](CC(=O)O)NC(=O)[C@H](CCCNC(=O)Cc2ccccc2)NC(=O)[C@@H](CC(=O)O)NC(=O)[C@@H](Cc2c[nH]c3ccccc23)NC1=O [Example 80, cyclo[-D-Asp-Orn(COCH2 Ph)-AsP-D-Leu-Leu-D-Trp-]] (cyclo(D[dL]L[dW][dD][Orn](PhAc)))	260	380
CC(C)C[C@@H]1NC(=O)[C@@H](CC(C)C)NC(=O)[C@H](CC(=O)O)NC(=O)[C@H](CCCNC(=O)Cc2c[nH]c3ccccc23)NC(=O)[C@@H](CC(=O)O)NC(=O)[C@@H](Cc2c[nH]c3ccccc23)NC1=O [Example 82, cyclo[-D-Asp-Orn(COCH2 -Ind)-Asp-D-Leu-Leu-D-Trp-]] (cyclo(D[dL]L[dW][dD][Orn](X3)))	240	500
CC(C)C[C@@H]1NC(=O)[C@H](CC(=O)O)NC(=O)[C@@H](CC(=O)O)NC(=O)[C@@H](Cc2c[nH]c3ccccc23)NC(=O)[C@H](CC(C)C)NC(=O)[C@@H](CC(C)C)NC1=O [Example 32, Cyclo[--D--Asp--Asp--Leu--D--Leu--Leu--D--Trp--]] (cyclo(DL[dL]L[dW][dD]))	4.0	7.7
CC(C)C[C@@H]1NC(=O)[C@@H](CC(C)C)NC(=O)[C@H](Cc2c[nH]c3ccccc23)NC(=O)[C@H](CC(=O)O)NC(=O)[C@@H](CC(=O)O)NC(=O)[C@@H](Cc2c[nH]c3ccccc23)NC1=O [Example 33, Cyclo[--D--Asp--Asp--Trp--D--Leu--Leu--D--Trp--]] (cyclo(DW[dL]L[dW][dD]))	2.9	5.6
CC(C)C[C@@H]1NC(=O)[C@@H](CC(C)C)NC(=O)[C@@H]2CCCN2C(=O)[C@H](CC(=O)O)NC(=O)[C@@H](CC(=O)O)NC(=O)[C@@H](Cc2c[nH]c3ccccc23)NC1=O [Example 30, Cyclo[--D--Asp--Asp--Pro--D--Leu--Leu--D--Trp--]] (cyclo(DP[dL]L[dW][dD]))	4.4	9.1
CC(C)C[C@@H]1NC(=O)[C@@H](CC(C)C)NC(=O)[C@H]2CCCN2C(=O)[C@H](CC(=O)O)NC(=O)[C@@H](CC(=O)O)NC(=O)[C@@H](Cc2c[nH]c3ccccc23)NC1=O [Example 31, Cyclo[--D--Asp--Asp--D--Pro--D--Leu--Leu--D--Trp--]] (cyclo(D[dP][dL]L[dW][dD]))	2.6	1.0
CC(C)C[C@@H]1NC(=O)[C@@H](CC(C)C)NC(=O)[C@H](CC(=O)O)NC(=O)[C@H](Cc2c[nH]c3ccccc23)NC(=O)[C@@H](CC(=O)O)NC(=O)[C@@H](Cc2cn(C)c3ccccc23)NC1=O [Example 95, Cyclo[--D--Asp--Trp--Asp--D--Leu--Leu--D--Trp(Me)--]]	110	330
CC(C)C[C@@H]1NC(=O)[C@@H](CC(C)C)NC(=O)[C@H](CC(=O)O)NC(=O)[C@H](Cc2c[nH]c3ccccc23)N(C)C(=O)[C@@H](CC(=O)O)NC(=O)[C@@H](Cc2c[nH]c3ccccc23)NC1=O [Example 67, Cyclo[--D--Asp--N--MeTrp--Asp--D--Leu--Leu--D--Trp--]] (cyclo(D[dL]L[dW][dD][NMeW]))	9.1	30
CC(C)C[C@@H]1NC(=O)[C@@H](CC(C)C)NC(=O)[C@H](CC(=O)O)NC(=O)[C@H](Cc2ccccc2)N(C)C(=O)[C@@H](CC(=O)O)NC(=O)[C@@H](Cc2c[nH]c3ccccc23)NC1=O [Example 48, Cyclo[--D--Asp--N--MePhe--Asp--D--Leu--Leu--D--Trp--]] (cyclo(D[dL]L[dW][dD][NMeF]))	2.7	13
CC(C)C[C@@H]1NC(=O)[C@@H](C(C)(C)C)NC(=O)[C@H](CC(=O)O)NC(=O)[C@H](Cc2c[nH]c3ccccc23)NC(=O)[C@@H](CC(=O)O)NC(=O)[C@@H](Cc2c[nH]c3ccccc23)NC1=O [Example 53, cyclo[-D-Asp-Trp-Asp-D-tLeu-Leu-D-Trp-]] (cyclo(D[dTle]L[dW][dD]W))	64	460
CC(C)C[C@@H]1NC(=O)[C@@H](CC(C)C)NC(=O)[C@H](CC(=O)O)NC(=O)[C@H]2CCCN2C(=O)[C@@H](CC(=O)O)NC(=O)[C@@H](Cc2c[nH]c3ccccc23)NC1=O [Example 24, Cyclo[--D--Asp--D--Pro--Asp--D--Leu--Leu--D--Trp--]] (cyclo(D[dL]L[dW][dD][dP]))	1.7	–
CC(C)C[C@@H]1NC(=O)[C@@H](CC(C)C)NC(=O)[C@H](CC(=O)O)NC(=O)[C@H](Cc2ccccc2)NC(=O)[C@@H](CC(=O)O)NC(=O)[C@@H](Cc2c[nH]c3ccccc23)NC1=O [Example 19, Cyclo[--D--Asp--Phe--Asp--D--Leu--Leu--D--Trp--]] (cyclo(D[dL]L[dW][dD]F))	8.3	7.1
Cyclo[--D--Asp--D,L-Tic--Asp--D--Leu--Leu--D--Trp--] [Example 86]	38	240
CC(C)C[C@@H]1NC(=O)[C@@H](CC(C)C)NC(=O)[C@H](CC(=O)O)NC(=O)[C@H](CC(C)C)N(C)C(=O)[C@@H](CC(=O)O)NC(=O)[C@@H](Cc2c[nH]c3ccccc23)NC1=O [Example 47, Cyclo[--D--Asp--N--MeLeu--Asp--D--Leu--Leu--D--Trp--]] (cyclo(D[dL]L[dW][dD][NMeL]))	6.8	17
CC(C)C[C@@H]1NC(=O)[C@@H](CC(C)C)NC(=O)[C@H](CC(=O)O)NC(=O)CN(C)C(=O)[C@@H](CC(=O)O)NC(=O)[C@@H](Cc2c[nH]c3ccccc23)NC1=O [Example 46, Cyclo[--D--Asp--Sar--Asp--D--Leu--Leu--D--Trp--]] (cyclo(D[dL]L[dW][dD][Sar]))	8.1	75
